Patent publication US8680091B2, “6-arylalkylamino-2,3,4,5-tetrahydro-1H-benzo[d]azepines as 5-HT2C receptor agonists” (Eli Lilly and Company, priority 2005, dated 2014)

Key:
[1] = system: male NIH Swiss mice; assay: Nestlet shredding; assay type: in vivo, mouse; settings: 30 min, rotorod for motor impairment
Source text: Mice naturally will construct nests of material available in their living environment. Since this behavior is obsessive in nature, it has been used to model OCD (Xia Li, Denise Morrow and Jeffrey M. Witkin, “Decreases in nestlet shredding of mice by serotonin uptake inhibitors: comparison with marble burying”, Psychopharmacology, submitted Jul. 14, 2003). House experimentally-naïve male, NIH Swiss mice (Harlan Sprague-Dawley, Indianapolis, Ind.) weighing between 28-35 g in groups of 12 for at least three days prior to testing in a vivarium with a 12 h light/dark cycle. Conduct experiments during the light cycle in an experimental room with normal overhead fluorescent lighting. Dose mice with vehicle or test compound and after a specified pretreatment interval (generally 30 min.), place the mice individually in a 17×28×12 cm high plastic tub with about 5 mm sawdust shavings on the floor along with a pre-weighed multi-ply gauze pad (51 mm square). After 30 min., weigh the remainder of the gauze pad not removed by the mouse. Determine the weight of the gauze used for nestlet construction by subtraction. Compare the results for test compound treated mice to the results for vehicle control treated mice with Dunnett's test.
Clinically effective OCD treatment standard compounds suppress nestlet shredding at doses that are devoid of motor-impairing effects as measured by the rotorod test. […]

[2] = system: Wistar rats; assay: Schedule-induced polydipsia; assay type: in vivo, rat
Source text: Schedule-Induced Polydipsia
Food-deprived rats exposed to intermittent presentations of food will drink amounts of water that are far in excess of their normal daily intake and in excess of their intake when given all of their food at one time (Falk J L. “Production of polydipsia in normal rats by an intermittent food schedule”, Science 133: 195-196, (1961)). This excessive behavior is persistent and has been used to model OCD.
Maintain Wistar rats on a food restricted diet (to maintain 85% free feeding weight), but with free access to water. Train the rats in a behavioral testing chamber to press a lever to receive a food pellet under a fixed interval schedule, such that the rats are rewarded with a 45 mg food pellet the first time they press a lever after a 120 second interval has elapsed. The fixed interval is then reset to 120 seconds and the process repeated. Thus, during a 90 min. test session, the rats can earn a maximum of 45 pellets. The behavioral chamber is also equipped with a water bottle that is weighed before and after the session to determine the amount of water consumed.
Administer test compounds on Tuesdays and Fridays. […] Compare the rates of lever pressing and water consumption for each animal's performance during sessions after test compound treatment with that animal's performance during control sessions, expressed as a percent of the control rate. […]

[3] = system: male NIH Swiss mice; assay: Marble burying assay (with rotorod); assay type: in vivo, mouse; settings: marbles buried in 30 min, rotorod for motor impairment
Source text: Marble burying in mice has been used to model anxiety disorders including obsessive-compulsive disorders (OCD) due to ethological study of the behavior (e.g. Gyertyan I. “Analysis of the marble burying response: Marbles serve to measure digging rather than evoke burying”, Behavioural Pharmacology 6: 24-31, (1995)) and due to the pharmacological effects of clinical standards (c.f., Njung'E K. Handley S L. “Evaluation of marble-burying behavior as a model of anxiety”, Pharmacology, Biochemistry & Behavior. 38: 63-67, (1991)); Borsini F., Podhorna J., and Marazziti, D. “Do animal models of anxiety predict anxiolytic effects of antidepressants?”, Psychopharmacology 163: 121-141, (2002)).
House experimentally-naïve male, NIH Swiss mice (Harlan Sprague-Dawley, Indianapolis, Ind.) weighing between 28-35 g in groups of 12 for at least three days prior to testing in a vivarium with 12 h light and dark cycles. Conduct experiments during the light cycle in a dimly lit experimental testing room. Dose mice with vehicle or test compound and, after a specified pretreatment interval (generally 30 min.), place each mouse individually on a rotorod (Ugo Basile 7650) operating at a speed of 6 revolutions/min. and observe for falling. […]
Clinically effective standard compounds suppress marble burying at doses that are devoid of motor-impairing effects as measured on the rotorod. […]

[4] = system: Wistar rats; settings: clinically effective OCD treatment standard compounds; cited from earlier work
[5] = system: male NIH Swiss mice; settings: compounds used to treat OCD, literature; cited from earlier work

Which Nestlet shredding [1] does the source give for `C[C@H](N)Cc1ccccc1` [d-amphetamine] here?
Its Nestlet shredding is “decreases nestlet shredding only at doses that produce motoric side effects”.

And the “Effect on schedule-induced polydipsia with co-administered 5-HT2C antagonist” value ([2]; co-administration of the 5-HT2C receptor antagonist)?
Its value is “not prevented by the 5HT2C receptor antagonist”.

What about the “Schedule-induced polydipsia (water consumption)” value ([2]; food-restricted rats, 90 min session) of the same compound?
The value was “decreases excessive drinking only at behaviorally stimulating doses”.

For `CN(C)CCCN1c2ccccc2Sc2ccc(Cl)cc21` [chlorpromazine], which Marble burying [3] is on record?
The Marble burying was “decrease marble burying only at doses that also disrupt rotorod performance”.

For `CNCCC(Oc1ccc(C(F)(F)F)cc1)c1ccccc1` (stereo not shown) [fluoxetine], which “Schedule-induced polydipsia (clinical standards)” value [4] is on record?
The value was “suppress schedule-induced polydipsia without producing notable changes in motor patterns, food intake, or behavior the following day”.

What about the “Marble burying (clinical standards)” value [5] of the same compound?
Its value is “decrease burying”.

For `CN(C)CCCN1c2ccccc2CCc2ccc(Cl)cc21` [chlomipramine], which “Schedule-induced polydipsia (clinical standards)” value [4] is on record?
The value was “suppress schedule-induced polydipsia without producing notable changes in motor patterns, food intake, or behavior the following day”.
